Active and inactive are the calls of the source. No cut-off for these calls is given here.
How the values were obtained:
HUVEC [1] = experiment: Cytotoxicity against HUVEC after 24 hrs by MTT assay; assay type: cell-based; conditions: human
HUVEC [2] = experiment: Cytotoxicity against HUVEC at <10 uM after 24 hrs by MTT assay; assay type: cell-based; conditions: human
HUVEC [3] = experiment: Radioprotective activity against 5 Gy gamma radiation-mediated cell damage in HUVEC assessed as reduction of phopsho-p53 levels at 0.01 to 1 uM by Western blot method; assay type: functional, cell-based; conditions: Homo sapiens
HUVEC [4] = experiment: (§1) Radioprotective activity against 5 Gy gamma radiation-mediated cell damage in HUVEC assessed as early apoptotic cells at 0.01 uM preincubated for 2 hrs followed by 5 Gy gamma irradiation and measured after 24 hrs by annexin-V-FITC/propidium iodide staining-based flow cytometric method (reference value: 21.2%); assay type: functional, Homo sapiens
HUVEC [5] = experiment: Radioprotective activity against 5 Gy gamma radiation-mediated cell damage in HUVEC assessed as increase in Bcl-2 levels at 0.01 to 1 uM by Western blot method; assay type: functional, cell-based; conditions: Homo sapiens
HUVEC [6] = experiment: Radioprotective activity against 5 Gy gamma radiation-mediated cell damage in HUVEC assessed as decrease in Bax levels at 0.01 to 1 uM by Western blot method; assay type: functional, cell-based; conditions: Homo sapiens
HUVEC [7] = experiment: as §1, with “late” for “early”, “9.5%)” for “21.2%)”; assay type: functional, Homo sapiens
HUVEC [8] = experiment: Radioprotective activity against 5 Gy gamma radiation-mediated cell damage in HUVEC assessed as increase in cell survival at 0.01 to 10 uM preincubated for 2 hrs followed by 5 Gy gamma irradiation and measured after 48 hrs by MTT assay; assay type: functional, cell-based; conditions: Homo sapiens
HUVEC [9] = experiment: Radioprotective activity against 5 Gy gamma radiation-mediated cell damage in HUVEC assessed as increase in cell survival at 0.01 to 1 uM after 48 hrs by MTT assay; assay type: functional, cell-based; conditions: Homo sapiens
HUVEC [10] = experiment: as §1, with “viable” for “early apoptotic”, “65.8%)” for “21.2%)”; assay type: functional; conditions: Homo sapiens, light or radiation study, read-out: Activity
HUVEC [11] = experiment: as §1, with “necrotic” for “early apoptotic”, “0.1” for “0.01”, “3.5%)” for “21.2%)”; assay type: functional, Homo sapiens
HUVEC [12] = experiment: as §1, with “0.1” for “0.01”; assay type: functional, Homo sapiens
HUVEC [13] = experiment: (§2) Radioprotective activity against 5 Gy gamma radiation-mediated cell damage in HUVEC assessed as necrotic cells at 1 uM preincubated for 2 hrs followed by 5 Gy gamma irradiation and measured after 24 hrs by annexin-V-FITC/propidium iodide staining-based flow cytometric method (reference value: 3.5%); assay type: functional, Homo sapiens
HUVEC [14] = experiment: as §1, with “1” for “0.01”; assay type: functional, Homo sapiens
HUVEC [15] = experiment: as §2, with “late apoptotic” for “necrotic”, “9.5%)” for “3.5%)”; assay type: functional, Homo sapiens
HUVEC [16] = experiment: Radioprotective activity against 5 Gy gamma radiation-mediated cell damage in HUVEC assessed as viable cells at 1 uM preincubated for 2 hrs followed by 5 Gy gamma irradiation and measured after 24 hrs by annexin-V-FITC/propidium iodide staining-based flow cytometric method (reference value: 65.8%); assay type: functional; conditions: Homo sapiens, light or radiation study, read-out: Activity
HUVEC [17] = experiment: (§3) Radioprotective activity against 5 Gy gamma radiation-mediated cell damage in HUVEC assessed as viable cells at 0.1 uM preincubated for 2 hrs followed by 5 Gy gamma irradiation and measured after 24 hrs by annexin-V-FITC/propidium iodide staining-based flow cytometric method (reference value: 65.8%); assay type: functional; conditions: Homo sapiens, light or radiation study, read-out: Activity
HUVEC [18] = experiment: Radioprotective activity against 5 Gy gamma radiation-mediated cell damage in HUVEC assessed as reduction of total p53 levels at 0.01 to 1 uM by Western blot method; assay type: functional, cell-based; conditions: Homo sapiens
HUVEC [19] = experiment: as §2, with “0.01” for “1”; assay type: functional, Homo sapiens
HUVEC [20] = experiment: as §3, with “late apoptotic” for “viable”, “9.5%)” for “65.8%)”; assay type: functional, Homo sapiens
HUVEC [21] = experiment: Radioprotective activity against 5 Gy gamma radiation-mediated cell damage in HUVEC assessed as decrease in caspase-3 activation at 0.01 to 1 uM by Western blot method; assay type: functional, cell-based; conditions: Homo sapiens

In the case of `O=C(O)c1ccc(/C=C/S(=O)(=O)Cc2ccccc2)cc1`, the Activity (HUVEC [1]) is reported as “Toxic”.

With `COc1ccc(CS(=O)(=O)/C=C/c2ccc(C(=O)O)cc2)cc1` the Activity (HUVEC [1]) was “Toxic”.

`O=S(=O)(/C=C/c1ccc(-c2ccccc2)cc1)Cc1ccc(Cl)cc1` was tested, and the Activity (HUVEC [1]) was “Toxic”.

`CC(C)(C)c1ccc(CS(=O)(=O)/C=C/c2ccc(C(=O)O)cc2)cc1` was tested, and the Activity (HUVEC [1]) was “Toxic”.

With `COc1ccc(/C=C/S(=O)(=O)Cc2ccc(Cl)cc2)cc1` the Activity (HUVEC [1]) was “Toxic”.

`CC(c1ccccc1)S(=O)(=O)/C=C/c1ccc(C(=O)OC2CC(C)(C)N([O])C(C)(C)C2)cc1` (configuration not stated) was tested, and the Activity (HUVEC [2]) was “Non-Toxic”.

In the case of `CC1(C)CC(OC(=O)c2ccc(/C=C/S(=O)(=O)Cc3ccc(Cl)cc3)cc2)CC(C)(C)N1[O]`, the Activity (HUVEC [3]) is reported as “Active”, the Activity (HUVEC [4]) is reported as 11.2% and the Activity (HUVEC [5]) is reported as “Active”. For the same compound, the Activity (HUVEC [6]) was “Active”, the Activity (HUVEC [7]) was 2.2% and the Activity (HUVEC [8]) was “Active”. The Activity (HUVEC [9]) was “Active”, the viability at 0.01 µM (HUVEC [10]) was 84.7% and the Activity (HUVEC [2]) was “Non-Toxic”. For the same compound, the Activity (HUVEC [11]) was 1.3%, the Activity (HUVEC [12]) was 6.2% and the Activity (HUVEC [13]) was 2.1%. For the same compound, the Activity (HUVEC [14]) was 11.7%, the Activity (HUVEC [15]) was 2.9% and the viability at 1 µM (HUVEC [16]) was 83.3%. For the same compound, the viability at 0.1 µM (HUVEC [17]) was 90%, the Activity (HUVEC [18]) was “Active” and the Activity (HUVEC [19]) was 1.9%. For the same compound, the Activity (HUVEC [20]) was 2.5% and the Activity (HUVEC [21]) was “Active”.

With `Cc1ccc(/C=C/S(=O)(=O)Cc2ccc(Cl)cc2)cc1` the Activity (HUVEC [1]) was “Toxic”.

From ChEMBL document CHEMBL4261498, “Synthesis, characterization, and radioprotective activity of α,β-unsaturated aryl sulfone analogs and their Tempol conjugates” (Medchemcomm, 2017)
